Patent US5789434A, “Derivatives of substituted 4-biarylbutyric acid as matrix metalloprotease inhibitors” (priority 1995, dated 1998)

What was measured:
MMP-9 = molecular target: T1, MMP-9 (Homo sapiens, UniProt P14780); assay: Thiopeptilide MMP-9 Inhibition Assay; type: biochemical; conditions: for inhibition at 5 µM: read-out: MMP-9: Thiopep. % inhibition; for IC50: pH 6.5, x (n) = average of n determinations, read-out: MMP-9: Thiopep. IC50
T1 construct: from tissue; host or cells: human polymorphonuclear leukocytes (PMN) from whole blood (New York Blood Center), PMA-stimulated supernatant
T1 sequence (P14780 107-707 limits assumed): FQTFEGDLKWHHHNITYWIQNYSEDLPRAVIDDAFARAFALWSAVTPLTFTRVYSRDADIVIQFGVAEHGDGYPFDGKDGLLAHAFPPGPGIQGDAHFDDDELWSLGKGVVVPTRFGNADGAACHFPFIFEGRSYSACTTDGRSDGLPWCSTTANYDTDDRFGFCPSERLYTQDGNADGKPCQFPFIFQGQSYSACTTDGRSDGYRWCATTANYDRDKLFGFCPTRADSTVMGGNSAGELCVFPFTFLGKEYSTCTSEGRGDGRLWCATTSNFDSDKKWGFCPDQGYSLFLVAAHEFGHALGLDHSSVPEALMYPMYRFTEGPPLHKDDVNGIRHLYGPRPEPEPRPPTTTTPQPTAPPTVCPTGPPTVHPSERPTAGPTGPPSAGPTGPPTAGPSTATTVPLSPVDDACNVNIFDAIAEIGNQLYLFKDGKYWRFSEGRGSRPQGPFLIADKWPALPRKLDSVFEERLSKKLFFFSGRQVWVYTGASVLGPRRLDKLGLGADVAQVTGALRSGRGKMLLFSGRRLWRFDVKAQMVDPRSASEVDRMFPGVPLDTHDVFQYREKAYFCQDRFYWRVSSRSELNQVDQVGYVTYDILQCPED

MMP-3 = molecular target: T2, MMP-3 (Homo sapiens, UniProt P08254); assay: Primary Thiopeptilide MMP-3 Inhibition Assay; type: biochemical; conditions: for IC50: pH 6.5, 13 nM stromelysin, x (n) = average of n determinations, read-out: MMP-3 Thiopep. IC50; for inhibition at 5 µM: read-out: MMP-3 Thiopep. % inhibition
T2 construct: Truncated Prostromelysin-257 was expressed in a soluble form in E.coli; made in house; host or cells: E. coli
T2 sequence (P08254 100-274 limits assumed): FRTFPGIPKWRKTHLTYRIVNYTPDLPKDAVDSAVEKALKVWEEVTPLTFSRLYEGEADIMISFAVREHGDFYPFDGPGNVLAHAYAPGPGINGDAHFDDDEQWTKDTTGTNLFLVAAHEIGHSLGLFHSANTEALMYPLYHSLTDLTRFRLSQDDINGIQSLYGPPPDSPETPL
Description: Enzyme: recombinant stromelysin expressed in E.coli and purified as described above. […] The protocols for the assay of compounds as stromelysin inhibitors was the same as that used for MMP-9 except that the assay buffer was 50 mM MES, pH 6.5 containing 150 mM NaCl, 10 mM CaCl2, 0.005% Brij, and 1% DMSO.

Compound	inhibition at 5 µM (MMP-9)	IC50 (MMP-3)	IC50 (MMP-9)	inhibition at 5 µM (MMP-3)
C=C(CC(O)c1ccc(-c2ccc(Cl)cc2)cc1)C(=O)O (stereo not drawn) [Example 38, [1,1'-Biphenyl]-4-butanoic acid, 4'-chloro-γ-hydroxy-α-methylene-, reference compound]	10%	10000 nM	–	–
O=C(CC(CSc1cccc(F)c1)C(=O)O)c1ccc(-c2ccc(Cl)cc2)cc1 (stereo not drawn) [Example 243, [1,1'-Biphenyl]-4-butanoic acid, 4'-chloro-α[[(3-fluorophenyl)thio]methyl]-γ-oxo-]	–	360 nM	850 nM	–
O=C(O)CCC(=O)c1ccc(-c2ccccc2F)cc1 [Example 9, [1,1'-Biphenyl]-4-butanoic acid, 2'-fluoro-γ-oxo-, reference compound]	3%	–	–	0%
CCCCOc1ccc(-c2ccc(C(=O)CC(CCCc3ccccc3)C(=O)O)cc2)cc1 (stereo not drawn) [Example 89, [1,1'-Biphenyl]-4-butanoic acid, 4'-butoxy-γ-oxo-α-(3-phenylpropyl)-]	–	111 nM	480 nM	–
N#Cc1ccc(-c2ccc(C(=O)CC(CCc3ccccc3)C(=O)O)cc2)cc1 (stereo not drawn) [Example 125, [1,1'-Biphenyl]-4-butanoic acid, 4'-cyano-γ-oxo-α-(2-phenylethyl)-]	–	105 nM	1800 nM	–
O=C(CC(CCCc1ccccc1)C(=O)O)c1ccc(-c2cccc(C(F)(F)F)c2)cc1 (stereo not drawn) [Example 81, [1,1'-Biphenyl]-4-butanoic acid, γ-oxo-α-(3-phenylpropyl)-3'-(trifluoromethyl)-]	12%	–	–	30%
O=C(CC(CSc1ccccc1O)C(=O)O)c1ccc(-c2ccc(Cl)cc2)cc1 (stereo not drawn) [Example 240, [1,1'-Biphenyl]-4-butanoic acid, 4'-chloro-α-[[(2-hydroxyphenyl)thio]methyl]-γ-oxo-]	–	96 nM	300 nM	–
O=C(CC(CCCCc1ccccc1)C(=O)O)c1ccc(-c2ccc(Cl)cc2)cc1 (stereo not drawn) [Example 179, [1,1'-Biphenyl]-4-butanoic acid, 4'-chloro-γ-oxo-α-(4-phenylbutyl)-]	–	160 nM	200 nM	–
CC(C)Oc1ccc(-c2ccc(C(=O)CC(CCCc3ccccc3)C(=O)O)cc2)cc1 (stereo not drawn) [Example 91, [1,1'-Biphenyl]-4-butanoic acid, 4'-(1-methylethoxy)-γ-oxo-α-(3-phenylpropyl)-]	–	174 nM	700 nM	–
O=C(CC(CCCc1ccccc1)C(=O)O)c1ccc(-c2ccc(F)c(Cl)c2)cc1 (stereo not drawn) [Example 74, [1,1'-Biphenyl]-4-butanoic acid, 3'-chloro-4'-fluoro-γ-oxo-α-(3-phenylpropyl)-]	38%	2300 nM	–	–
O=C(c1ccc(-c2ccc(Cl)cc2)cc1)[C@H]1CCC[C@H]1C(=O)O (relative stereo) [Example 288, Cyclopentanecarboxylic acid, 2-[(4'-chloro[1,1'-biphenyl]-4-yl)carbonyl]-, cis-]	46%	–	–	40%
O=C(O)[C@H]1[C@@H](Sc2ccc(F)cc2)CC[C@@H]1C(=O)c1ccc(-c2ccc(Cl)cc2)cc1 (relative stereo) [Example 303, Cyclopentanecarboxylic acid, 2-[(4'-chloro[1,1'-biphenyl]-4-yl)carbonyl]-5-[(4-fluorophenyl)thio]-, (1α,2β,5α)-]	–	310 nM	1400 nM	–
NCc1ccc(-c2ccc(C(=O)CC(CCCc3ccccc3)C(=O)O)cc2)cc1 (stereo not drawn) [Example 59, [1,1'-Biphenyl]-4-butanoic acid, 4'-(aminomethyl)γ-oxo-α-(3-phenylpropyl)-]	–	–	2000 nM	33%
O=C(CC(CCCc1ccccc1)C(=O)O)c1ccc(-c2ccc(CO)cc2)cc1 (stereo not drawn) [Example 53, [1,1'-Biphenyl]-4-butanoic acid, 4'-(hydroxymethyl)-γ-oxo-α-(3-phenylpropyl)-]	–	950 nM	800 nM	–
CCC(C)(CC(=O)O)CC(=O)c1ccc(-c2ccc(Cl)cc2)cc1 (stereo not drawn) [Example 335, [1,1'-Biphenyl]-4-pentanoic acid, 4'-chloro-β-ethyl-β-methyl-δ-oxo-]	–	–	6000 nM	55%
CC(=O)c1ccc(-c2ccc(Cl)cc2)cc1 [Example 37, Ethanone, 1-(4'-chloro[1,1'-biphenyl]-4-yl)-]	0%	–	–	9%
CC(C)CC(CC(=O)c1ccc(-c2ccc(Cl)c(Cl)c2)cc1)C(=O)O (stereo not drawn) [Example 64, [1,1'-Biphenyl]-4-butanoic acid, 3',4'-dichloro-α-(2-methylpropyl)-γ-oxo-]	29%	300 nM	–	–
CCCCCc1ccc(-c2ccc(C(=O)CC(CC(C)C)C(=O)O)cc2)cc1 (stereo not drawn) [Example 22, [1,1'-Biphenyl]-4-butanoic acid, α-(2-methylpropyl)-γ-oxo-4'-pentyl-]	–	790 nM	1200 nM	–
CC1=C(C)C[C@@H](C(=O)c2ccc(-c3ccc(Cl)cc3)cc2)[C@H](C(=O)O)C1 (relative stereo) [Example 327, 3-Cyclohexene-1-carboxylic acid, 6-[(4'-chloro[1,1'-biphenyl]-4-yl)carbonyl]-3,4-dimethyl-, trans-]	–	–	12000 nM	55%
COc1ccc(-c2ccc(C(=O)CC(CC(C)C)C(=O)O)cc2)cc1 (stereo not drawn) [Example 19, [1,1'-Biphenyl]-4-butanoic acid, 4'-methoxy-α-(2-methylpropyl)-γ-oxo-]	–	550 nM	1200 nM	–
Cc1ccccc1SCC(CC(=O)c1ccc(-c2ccc(Cl)cc2)cc1)C(=O)O (stereo not drawn) [Example 232, [1,1'-Biphenyl]-4-butanoic acid, 4'-chloro-α-[[(2-methylphenyl)thio]methyl]-γ-oxo-]	–	150 nM	200 nM	–
Cc1ccc(CCCC(CC(=O)c2ccc(-c3ccc(Cl)cc3)cc2)C(=O)O)cc1 (stereo not drawn) [Example 184, [1,1'-Biphenyl]-4-butanoic acid, 4'-chloro-α[3-(4-methylphenyl)propyl]-γ-oxo-]	41%	280 nM	–	–
CC(=O)Oc1ccc(-c2ccc(C(=O)CC(CCCc3ccccc3)C(=O)O)cc2)cc1 (stereo not drawn) [Example 67, [1,1'-Biphenyl]-4-butanoic acid, 4'-(acetyloxy)-γ-oxo-α-(3-phenylpropyl)-]	–	150 nM	780 nM	–
O=C(CC(CSc1cccc2ccccc12)C(=O)O)c1ccc(-c2ccc(Cl)cc2)cc1 (stereo not drawn) [Example 227, [1,1'-Biphenyl]-4-butanoic acid, 4'-chloro-α-[(1-naphthalenylthio)methyl]-γ-oxo-]	–	220 nM	360 nM	–
O=C(CC(CCCc1ccccc1)C(=O)O)c1ccc(-c2cccs2)cc1 (stereo not drawn) [Example 80, Benzenepentanoic acid, α-[2-oxo-2-[4-(2-thienyl)phenyl]ethyl]-]	–	470 nM	800 nM	–
O=C(CC(CCCc1ccccc1)C(=O)O)c1ccc(-c2ccc(OCCCc3ccccc3)cc2)cc1 (stereo not drawn) [Example 90, [1,1'-Biphenyl]-4-butanoic acid, γ-oxo-4'-(3-phenylpropoxy)-α-(3-phenylpropyl)-]	11%	–	–	36%
O=C(CC(CCCc1ccc(Cl)cc1)C(=O)O)c1ccc(-c2ccc(Cl)cc2)cc1 (stereo not drawn) [Example 185, [1,1'-Biphenyl]-4-butanoic acid, 4'-chloro-α[3-(4-chlorophenyl)propyl]-γ-oxo-]	31%	220 nM	–	–
